As usually defined, the GI50 is the concentration giving 50% growth inhibition. Read a low GI50 as greater sensitivity of the cells.

For the test, the system named is LNCaP cells. In words: LNCaP cell viability assay (MTS). Conditions: Homo sapiens, LNCaP, 48 h, LNCaP cell line. The format is cell-based. Summed up:
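GI50 derived by nonlinear four-parameter curve fitting (bottom fixed at zero) of MTS viability data. Prostate LNCaP cells seeded at 5000/well were given compound doses from 1 to 80 µM one day after plating and assayed after 48 h of exposure.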
As to `O=S(=O)(NCCCN(Cc1ccco1)CC1CCCO1)c1ccc(OC(F)(F)F)cc1` (centres unmarked) [Compound 79, N-(3-((furan-2-ylmethyl)((tetrahydrofuran-2-yl)methyl)amino)propyl)-4-(trifluoromethoxy)benzenesulfonamide], the GI50 turned out to be 49 µM.

Turning to `O=S(=O)(NCC1(c2ccc(Br)cc2Cl)CC1)c1ccc(OC(F)(F)F)cc1` [Compound 80, N-((1-(4-bromo-2-chlorophenyl)cyclopropyl)methyl)-4-(trifluoromethoxy)benzenesulfonamide], the GI50 stood at 23 µM.

Consider `O=S(=O)(NCC1(Cc2ccc(Br)cc2)CC1)c1ccc(OC(F)(F)F)cc1` [Compound 81, N-((1-(4-bromobenzyl)cyclopropyl)methyl)-4-(trifluoromethoxy)benzenesulfonamide], for which the GI50 was 40 µM.

With `CS(=O)(=O)c1cc(CNS(=O)(=O)c2ccc(OC(F)(F)F)cc2)cc(C(F)(F)F)c1` [Compound 82, N-(3-(methylsulfonyl)-5-(trifluoromethyl)benzyl)-4-(trifluoromethoxy)benzenesulfonamide], halving of growth (GI50) required 64 µM.

Regarding `O=S(=O)(NCC1(CCOCc2ccccc2)CC1)c1ccc(OC(F)(F)F)cc1` [Compound 83, N-((1-(2-(benzyloxy)ethyl)cyclopropyl)methyl)-4-(trifluoromethoxy)benzenesulfonamide], it took 38 µM to inhibit growth by half (GI50).

Turning to `CC1(C)CC1(CNS(=O)(=O)c1ccc(OC(F)(F)F)cc1)c1ccc(F)cc1F` (centres unmarked) [Compound 84, N-((1-(2,4-difluorophenyl)-2,2-dimethylcyclopropyl)methyl)-4-(trifluoromethoxy)benzenesulfonamide], it took 18 µM to inhibit growth by half (GI50).

In turn, `O=S(=O)(N[C@H](Cc1cc(F)c(F)cc1F)CC(F)(F)F)c1ccc(OC(F)(F)F)cc1` [Compound 85, (R)—N-(4,4,4-trifluoro-1-(2,4,5-trifluorophenyl)butan-2-yl)-4-(trifluoromethoxy)benzenesulfonamide] displayed a 50% growth inhibitory concentration (GI50) of 26 µM.

The molecule `O=S(=O)(NC(c1ccc(Cl)cc1)C1CCCC1)c1ccc(OC(F)(F)F)cc1` (centres unmarked) [Compound 86, N-((4-chlorophenyl)(cyclopentyl)methyl)-4-(trifluoromethoxy)benzenesulfonamide] displayed a GI50 of 75 µM.

The molecule `CC1CCN(c2ccccc2CNS(=O)(=O)c2ccc(OC(F)(F)F)cc2)CC1` [Compound 87, N-(2-(4-methylpiperidin-1-yl)benzyl)-4-(trifluoromethoxy)benzenesulfonamide] had a GI50 of 23 µM.

As for `O=S(=O)(NCC1(c2cc(C(F)(F)F)ccc2Cl)CC1)c1ccc(OC(F)(F)F)cc1` [Compound 88, N-((1-(2-chloro-5-(trifluoromethyl)phenyl)cyclopropyl)methyl)-4-(trifluoromethoxy)benzenesulfonamide], the GI50 worked out at 25 µM.

Turning to `O=S(=O)(NCCCOCCOCc1ccccc1)c1ccc(OC(F)(F)F)cc1` [Compound 89, N-(3-(2-(benzyloxy)ethoxy)propyl)-4-(trifluoromethoxy)benzenesulfonamide], the GI50 came to 48 µM.

In turn, `CCn1nc(C(F)(F)F)cc1COCCNS(=O)(=O)c1ccc(OC(F)(F)F)cc1` [Compound 90, N-(2-((1-ethyl-3-(trifluoromethyl)-1H-pyrazol-5-yl)methoxy)ethyl)-4-(trifluoromethoxy)benzenesulfonamide] came in with a GI50 of 28 µM.

Regarding `O=S(=O)(NCC1CN(Cc2ccccc2)CC12CCC2)c1ccc(OC(F)(F)F)cc1` (centres unmarked) [Compound 91, N-((6-benzyl-6-azaspiro[3.4]octan-8-yl)methyl)-4-(trifluoromethoxy)benzenesulfonamide], the GI50 amounted to 28 µM.

`COC(=O)C(NS(=O)(=O)c1ccc(OC(F)(F)F)cc1)c1ccccc1Br` (centres unmarked) [Compound 92, Methyl 2-(2-bromophenyl)-2-((4-(trifluoromethoxy)phenyl)sulfonamido)acetate] gave a GI50 of 42 µM.

`CC(CC1CCCCN1C)NS(=O)(=O)c1ccc(OC(F)(F)F)cc1` (centres unmarked) [Compound 93, N-(1-(1-methylpiperidin-2-yl)propan-2-yl)-4-(trifluoromethoxy)benzenesulfonamide] came in with a GI50 of 34 µM.

In turn, `CCOC(=O)CC(NS(=O)(=O)c1ccc(OC(F)(F)F)cc1)c1cccc(C(F)(F)F)c1` (centres unmarked) [Compound 94, Ethyl 3-((4-(trifluoromethoxy)phenyl)sulfonamido)-3-(3-(trifluoromethyl)phenyl)propanoate] returned a GI50 of 25 µM.

In the case of `CC1CCCCC1OCCNS(=O)(=O)c1ccc(OC(F)(F)F)cc1` (centres unmarked) [Compound 95, N-(2-((2-methylcyclohexyl)oxy)ethyl)-4-(trifluoromethoxy)benzenesulfonamide], growth was halved (GI50) at 15 µM.

`O=S(=O)(NCCNS(=O)(=O)c1ccc(F)c(Cl)c1)c1ccc(OC(F)(F)F)cc1` [Compound 96, 3-chloro-4-fluoro-N-(2-((4-(trifluoromethoxy)phenyl)sulfonamido)ethyl)benzenesulfonamide]: growth was halved (GI50) at 31 µM.

`O=S(=O)(NCCNS(=O)(=O)c1ccc(Cl)cc1F)c1ccc(OC(F)(F)F)cc1` [Compound 97, 4-chloro-2-fluoro-N-(2-((4-(trifluoromethoxy)phenyl)sulfonamido)ethyl)benzenesulfonamide] had a GI50 of 41 µM.

For `CN(C)CC1(CNS(=O)(=O)c2ccc(OC(F)(F)F)cc2)CC1` [Compound 98, N-((1-((dimethylamino)methyl)cyclopropyl)methyl)-4-(trifluoromethoxy)benzenesulfonamide], the GI50 worked out at 29 µM.

Molecule `CC1CCCC(CNS(=O)(=O)c2ccc(OC(F)(F)F)cc2)(N(C)C)C1` (centres unmarked) [Compound 99, N-((1-(dimethylamino)-3-methylcyclohexyl)methyl)-4-(trifluoromethoxy)benzenesulfonamide] displayed a GI50 of 45 µM.

The molecule `O=S(=O)(NCCN1c2ccccc2NS1(=O)=O)c1ccc(OC(F)(F)F)cc1` [Compound 100, N-(2-(2,2-dioxidobenzo[c] [1,2,5]thiadiazol-1(3H)-yl)ethyl)-4-(trifluoromethoxy)benzenesulfonamide] registered a GI50 of 61 µM.

In turn, `O=S(=O)(NC(c1ccc(F)cc1)C1CCCO1)c1ccc(OC(F)(F)F)cc1` (centres unmarked) [Compound 101, N-((4-fluorophenyl)(tetrahydrofuran-2-yl)methyl)-4-(trifluoromethoxy)benzenesulfonamide] yielded a GI50 of 33 µM.

`Cc1ccccc1C(NS(=O)(=O)c1ccc(OC(F)(F)F)cc1)C1CCCC(C)C1` (centres unmarked) [Compound 102, N-((3-methylcyclohexyl)(o-tolyl)methyl)-4-(trifluoromethoxy)benzenesulfonamide] registered a GI50 of 14 µM.

In the case of `CC1CC1C(NS(=O)(=O)c1ccc(OC(F)(F)F)cc1)c1ccccc1` (centres unmarked) [Compound 103, N-((2-methylcyclopropyl)(phenyl)methyl)-4-(trifluoromethoxy)benzenesulfonamide], halving of growth (GI50) required 20 µM.

`Cc1ccc(C(NS(=O)(=O)c2ccc(OC(F)(F)F)cc2)C(C)S(C)(=O)=O)cc1` (centres unmarked) [Compound 104, N-(2-(methylsulfonyl)-1-(p-tolyl)propyl)-4-(trifluoromethoxy)benzenesulfonamide] registered a GI50 of 49 µM.

As for `CC(NS(=O)(=O)c1ccc(OC(F)(F)F)cc1)C(NC(=O)OC(C)(C)C)c1ccccc1` (centres unmarked) [Compound 105, Tert-butyl (1-phenyl-2-((4-(trifluoromethoxy)phenyl)sulfonamido)propyl)carbamate], growth was halved (GI50) at 37 µM.

Consider `CCC(NS(=O)(=O)c1ccc(OC(F)(F)F)cc1)(C(=O)OC)c1ccccc1` (centres unmarked) [Compound 107, Methyl 2-phenyl-2-((4-(trifluoromethoxy)phenyl)sulfonamido)butanoate], for which the GI50 was determined as 69 µM.

Take `O=[N+]([O-])c1ccc(S(=O)(=O)NCCNS(=O)(=O)c2ccc(OC(F)(F)F)cc2)cc1` [Compound 108, 4-nitro-N-(2-((4-(trifluoromethoxy)phenyl)sulfonamido)ethyl)benzenesulfonamide]: it took 65 µM to inhibit growth by half (GI50).

`CC(C)CC(NS(=O)(=O)c1ccc(OC(F)(F)F)cc1)C(=O)Nc1nccs1` (centres unmarked) [Compound 109, 4-methyl-N-(thiazol-2-yl)-2-((4-(trifluoromethoxy)phenyl)sulfonamido)pentanamide] gave a GI50 of 25 µM.

The molecule `CCOC(=O)C(CC1CCOC1)NS(=O)(=O)c1ccc(OC(F)(F)F)cc1` (centres unmarked) [Compound 110, Ethyl 3-(tetrahydrofuran-3-yl)-2-((4-(trifluoromethoxy)phenyl)sulfonamido)propanoate] returned a GI50 of 61 µM.

`COC(=O)C(Cc1ccccc1O)NS(=O)(=O)c1ccc(OC(F)(F)F)cc1` (centres unmarked) [Compound 111, Methyl 3-(2-hydroxyphenyl)-2-((4-(trifluoromethoxy)phenyl)sulfonamido)propanoate] yielded a GI50 of 50 µM.

Take `COC(=O)C(Cc1ccc(O)c(F)c1)NS(=O)(=O)c1ccc(OC(F)(F)F)cc1` (centres unmarked) [Compound 112, Methyl 3-(3-fluoro-4-hydroxyphenyl)-2-((4-(trifluoromethoxy)phenyl)sulfonamido)propanoate]: halving of growth (GI50) required 38 µM.

As to `CC(C)c1ccc(C(CC(=O)O)NS(=O)(=O)c2ccc(OC(F)(F)F)cc2)cc1` (centres unmarked) [Compound 113, 3-(4-isopropylphenyl)-3-((4-(trifluoromethoxy)phenyl)sulfonamido)propanoic acid], growth was halved (GI50) at 66 µM.

`CC(C)(C)OC(=O)NC[C@H](NS(=O)(=O)c1ccc(OC(F)(F)F)cc1)c1ccccc1` [Compound 114, tert-butyl (R)-(2-phenyl-2-((4-(trifluoromethoxy)phenyl)sulfonamido)ethyl)carbamate]: halving of growth (GI50) required 42.5 µM.

Consider `CC(C)(C)OC(=O)NC[C@@H](NS(=O)(=O)c1ccc(OC(F)(F)F)cc1)c1ccccc1` [Compound 115, tert-butyl (S)-(2-phenyl-2-((4-(trifluoromethoxy)phenyl)sulfonamido)ethyl)carbamate], for which it took 51.6 µM to inhibit growth by half (GI50).

Take `NC[C@H](NS(=O)(=O)c1ccc(OC(F)(F)F)cc1)c1ccccc1` [Compound 116, (R)—N-(2-amino-1-phenylethyl)-4-(trifluoromethoxy)benzenesulfonamide]: growth was halved (GI50) at 51.2 µM.

`NC[C@@H](NS(=O)(=O)c1ccc(OC(F)(F)F)cc1)c1ccccc1` [Compound 117, (S)—N-(2-amino-1-phenylethyl)-4-(trifluoromethoxy)benzenesulfonamide] registered a GI50 of 55 µM.

Source of the values: patent US20240174603A1 (Rappta Therapeutics Oy, priority 2021, published 2024).
